In patent US20040180394A1, “Assays for inositol phosphates” (priority 2001, published 2004):
Where no end group is shown, it is not given here.

Assays:
untransfected T24 cells = assay: Inositol phosphate SPA assay in untransfected T24 cells; format: cell-based; conditions: 1 mM carbachol
parent T24 cell line = assay: FLIPR intracellular calcium in parent T24 cell line; format: cell-based
[1] = test system: acetylcholine receptors naturally expressed in HEK293 cells; assay: Inositol phosphate SPA assay in wild-type HEK293 cells; format: cell-based, human; conditions: 1 mM carbachol, 5 mM LiCl where used (FIG. 9)
Source text: See Example 8 for details.

[2] = test system: untransfected CHO/NFAT cells; assay: Inositol phosphate assay in untransfected CHO/NFAT cells; format: cell-based; conditions: untransfected CHO/NFAT cells (FIGS. 7A-D), 10 nM NPFF
Source text: There was no response to NPFF in untransfected CHO/NFAT cells (FIGS. 7A-D).

Compound | response to agonist (inositol phosphates) (untransfected T24 cells) | rise in intracellular calcium (parent T24 cell line) | inositol phosphate level [1] | response to agonist (inositol phosphates) [2]
C[N+](C)(C)CCOC(N)=O [carbachol] | no response | no rise in intracellular calcium | increase of inositol phosphate | 
NPFF: agonist used at 10 nM to activate the human neuropeptide FF receptor (FLFQPQRF; ends and bridges not checked; UniProt O15130 69-76, looked up) |  |  |  | no response
